Test results as given in patent publication US20260248767A1, “METHODS FOR INDUCING FERROPTOSIS IN CANCER” (Board of Regents, The University of Texas System, priority 2023, published 2026).

System: one-carbon metabolism
Experiment: dTTP levels and labelling (serine through one-carbon metabolism)
Format: cell-based
Details: sulfite vs vehicle treated samples, over time
Protocol: The total dTTP, M+1dTTP and M+2 dTT were measured in the presence or absence of sulfite.
The complete platform consists of an Accela 1250 HPLC system, Accela Open Autosampler, MayLab Mistraswitch column oven and Exactive orbitrap mass spectrometer, controlled by the Xcalibur 3.0.63 software package. Chromatography was performed with a Phenomenex Synergi Hydro-RP column (100×2 mm, 2.5 μm particle size). Solvent A is 10 mM tributylamine and 15 mm acetic acid in water; Solvent B is methanol. The gradient is: 0 min, 0% B; 2.5 min, 0% B; 5 min, 20% B; 7.5 min, 20% B; 13 min, 55% B; 15.5 min, 95% B; 18.5 min, 95% B; 19 min, 0% B; 25 min, 0% B. The injection volume was 10 μl. The column temperature was set to 40° C., and the flow rate was 200 μl/min. The Exactive was operated in negative ionization mode with an electrospray ionization interface. The instrument parameters are as follows: sheath gas flow rate 30 (arbitrary units), aux gas flow rate 10 (arbitrary units), sweep gas flow rate 3 (arbitrary units), spray voltage 3 kV, capillary temperature 325° C., capillary voltage −25 V, tube lens voltage −50 V. The scan range was set to 80-1,000 m/z, with a maximum inject time of 250 ms, resolution of 100,000 at 1 Hz, and AGC (automatic gain control) target 1×10^6. The data were analyzed using the MAVEN software suite with signal intensity determined as the Peak Area (Top). For metabolic labelling experiments, the data were corrected to account for the natural abundance of nitrogen-15 using IsoCorrectoR (Heinrich, P. et al. Sci Rep 8, 17910, doi: 10.1038/s41598-018-36293-4 (2018)).

O=S([O-])[O-].[Na+].[Na+] [sulfite, sodium sulfite]
decreased over time: M+1dTTP | M+2 dTT | total dTTP
